Legend:
MACC1 [1] = assay: MACC1 protein by western blot in statin-treated HCT116 cells; format: cell-based, human; conditions: 1-10 μM statin, 24 h
Description: (§1) HCT116 cells were treated with increasing amounts (1-10 μM) of different, clinically relevant statins dissolved in DMSO. Following 24 h of treatment cells were harvested for RNA and protein isolation. MACC1 mRNA expression was analyzed by qRT-PCR and is expressed relative to DMSO treated control samples. Protein amounts were analyzed by western blot.
(§2) HCT116, SW620 and SW480 colorectal carcinoma cells were purchased from ATCC. HCT116 cells were stably transduced with GFP/ MACC1-GFP plasmids to produce MACC1 overexpressing cell lines and SW620 cells were stably transduced by sh-control/sh-MACC1 plasmids to produce MACC1 knockdown cell lines. SW480 stable MACC1 overexpressing cell lines were created using pCDNA3.1 MACC1 plasmids and the control cells were produced using pCDNA3.1 empty plasmids followed clone selection using Gentamycin (Gibco). Knock-out of MACC1 in SW620 cells was achieved by CRISPR-Cas9 based gene editing followed by Puromycin (Gibco) based selection and subsequently the clones were picked using single cell sorting. Cells were cultured in RPMI supplemented with 10% FCS in 5% CO2 humidified atmosphere and sub passaged 2-3 times a week to maintain cultures subconfluent. Drugs were solubilized in DMSO, stock concentrations were 2 mM for niclosamide (Sigma-Aldrich, St Louis, Mo., USA), 2 mM for GSK1120212 (trametinib, Selleck Chemicals, Munich, Germany) and selumetinib (AZD6244, Selleck Chemicals, Munich, Germany) and 10 mM for statins (atorvastatin, lovastatin, fluvastatin, TCI Deutschland GmbH, Eschborn, Germany). All drugs were pre-diluted to 1000× final concentration in DMSO. Control cells were treated with equal amounts of DMSO.
Whole cell protein extraction was performed on 5×10^5 HCT116 and SW620 cells. Cells were lysed using RIPA buffer (50 mM Tris-HCT pH 7.5, 150 mM NaCl, 1% Nonidet P-40) supplemented with cOmplete Protease inhibitor (Roche) for 30 min at 4° C. The lysate was clarified and the protein content was measured using the BCA Kit (Pierce). 20 μg protein lysate were denatured with LDS-containing NuPage Loading buffer (invitrogen) and DTT for 10 min.
Proteins were then resolved in 10% SDS-PAGE followed by protein transfer onto PVDF membranes (BioRAD). The membrane was blocked with 5% w/v skim milk powder and 1% w/v BSA in TBST (10 mM Tris-HCL pH 8, 150 mM NaCl and 0.1% Tween 20) for 60 min. The membrane was incubated overnight with the respective primary antibodies (anti-MACC1, #HPA020081, Sigma Aldrich; S100A4, #5114, Dako and β-Actin, #31430, Invitrogen; Lamin B1, #12586s, Cell Signalling). The membranes were washed and further incubated with corresponding horseradish peroxidase-tagged secondary antibodies (anti-mouse IgG HRP-conjugated, #31430, Invitrogen and anti-rabbit IgG HRP-conjugated, #W4018, Promega) for 60 min. […]

MACC1 [2] = assay: MACC1 mRNA expression by qRT-PCR in statin-treated HCT116 cells; format: cell-based, human; conditions: 1-10 μM statin, 24 h, relative to DMSO treated control
Description: as §1, §2
RNA was isolated using the Gene Matrix Universal RNA Purification Kit (EURx, Poland) according to the manufacturer's instructions. RNA was quantified and 50 ng of RNA was reverse transcribed using a reaction mix containing MuLV reverse transcriptase, 10 mM MgCl2, 1× PCR-Buffer, 250 μM pooled dNTPs, 1U RNAse inhibitor and random hexamers (all from Applied Biosystems). The reaction was performed at 42° C. for 15 min, 99° C. for 5 min and subsequent cooling at 4° C. for 5 min. The cDNA was amplified using SYBR Green chemistry (Promega) using the LightCycler 480 II system (Roche Diagnostics) at the following PCR conditions: 95° C. for 2 min followed by 45 cycles of 95° C. for 7 s, 60° C. for 10 s and 72° C. for 20 s. The primers used for quantification are as follows: MACC1 Fwd 5′-[…]-3′ and Rev 5′-[…]-3′; S100A4 Fwd 5′-[…]-3′ and Rev 5′- […]-3′. Data analysis was performed with LightCycler 480 Software release 1.5.0 SP3 (Roche Diagnostics). Mean values was calculated from RT-qPCR duplicates. Each mean value of the expressed gene was normalized to the respective RP-II cDNA. […]

HCT116-CMVp-Luc cells = assay: Xenograft mouse model of liver metastasis, intrasplenic transplantation, bioluminescence imaging; format: in vivo, SCID-beige mice; conditions: daily p.o., alone or combined, vs solvent; for Metastasis formation to the liver (luminescence), reduced dose: statin 1.5 mg/kg, niclosamide 164 mg/kg; for Metastasis formation to the liver (luminescence), maximum human dose equivalent: statin 13 mg/kg, niclosamide 328 mg/kg
Description: Severe combined immunodeficiency (SCID)-beige mice (n=10 per group) were intrasplenically transplanted with HCT116-CMVp-Luc cells and treated daily with solvent, 13 mg/kg atorvastatin or fluvastatin (p.o.), 328 mg/kg niclosamide (p.o.) or the combination of niclosamide with one of the statins, at the indicated doses. These doses correspond to the maximum human doses established for the statins and niclosamide. Metastasis to the liver was analyzed with bioluminescence imaging after an intraperitoneal application of 150 mg/kg D-Luciferin at the experimental endpoint. Following whole animal imaging livers were removed and analyzed as isolated organs.
Severe combined immunodeficiency (SCID)-beige mice (n=10 per group) were intrasplenically transplanted with HCT116-CMVp-Luc cells and treated daily with solvent, 1.5 mg/kg atorvastatin or fluvastatin (p.o.), 164 mg/kg niclosamide (p.o.) or the combination of niclosamide with one of the statins, at the indicated doses. These doses therefore correspond to 12.5% of the maximum human dose for the statins and 50% of the maximum human dose for niclosamide. Metastasis to the liver was analyzed with bioluminescence imaging after an intraperitoneal application of 150 mg/kg D-Luciferin at the experimental endpoint. Following whole animal imaging livers were removed and analyzed as isolated organs.
All experiments were performed in accordance with the United Kingdom Coordinated Committee on Cancer Research (UKCCCR) guidelines and approved by the responsible local authorities (State Office of Health and Social Affairs, Berlin, Germany). For in vivo drug testing a xenograft mouse model was used as described earlier (Stein 2009 Nat Med, Sack 2011 J Natl Cancer Inst,
Juneja & Kobelt 2017 Plos Biol). In brief, HCT116-CMVp-LUC cells (5×10^5 cells per mouse, resuspended in 50 μL PBS) were intrasplenically transplanted into 6-week-old female SCID beige (SCID bg/bg) mice. The animals were assigned randomly into treatment groups.
Drugs were administered as a suspension using a gavage tube. Both niclosamide (either 328 mg/kg or 164 mg/kg) and a statin (atorvastatin or fluvastatin, at 13 mg/kg or 1.5 mg/kg) were administered daily, orally. Control mice were treated with the appropriate volume of solvent solution. The in vivo experimentation and luminescence imaging were conducted as described below.
For luminescence imaging, mice were anesthetized with 5% Isoflurane and received intraperitoneally 150 mg/kg D-luciferin (Biosynth, Staad, Switzerland) dissolved in sterile PBS. Anesthesia was maintained with 2% isoflurane. Imaging was performed with the NightOWL LB 981 system (Berthold Technologies, Bad Wildbad, Germany). ImageJ version 1.48v (NIH, Bethesda, Md.) was used for color coding of signal intensity (presenting a 256 grayscale) and overlay pictures.

HCT116 cells = assay: Wound healing (scratch) assay, IncuCyte, with Loewe synergy calculation; format: cell-based, human; conditions: HCT116, three concentrations (statin 5/2.5/1.25 μM, niclosamide 1/0.5/0.25 μM), 48 h, vs DMSO
Description: For wound healing assays the HCT116 human colon cancer cell line was used. HCT116 cells are endogenously positive for MACC1 and S100A4 expression at the mRNA and protein level. In addition, they show decreased motility when either marker is inhibited. For wound healing (scratch) experiments cells were passaged to a density of 6×10^5 per ml and cultured for 48 h. Cells were then harvested and counted. For wound healing assays 1.2×10^5 cells were seeded in 100 μl RPMI supplemented with 10% FCS in 96 well Image Lock Plates (Essen Bioscience, Hertfordshire, UK). Cells were allowed to adhere for 6 hours. Wounds in the monolayer were applied using the IncuCyte WoundMaker (Essen Bioscience). After applying the wounds 100 μl of 2-fold concentrated drug solutions were added. DMSO treated and untreated samples served as controls. For each drug three different (niclosamide 1 μM, 0.5 μM and 0.25 μM, each statin 5 μM, 2.5 μM and 1.25 μM, MEK1 inhibitors 1 μM, 0.1 μM and 0.01 μM) concentrations and combinations thereof were applied, each in triplicate. Of all statins, we tested lovastatin, fluvastatin and atorvastatin. Wound closure was monitored every second hour in the IncuCyte system (Essen Bioscience). A pre-established image collection of HCT116 was used to teach the software detection of cells and wound. Wound confluency was expressed relative to DMSO treated controls. Synergy was analyzed using combenefit 2.021. DMSO treated samples were set to 100%. To calculate synergy, we used the Loewe isobole equation model. For the calculations dose-response curves for three single concentrations and the nine combinations thereof were used. The Loewe model was applied since there is a certain degree of target interaction already shown: first, active Wnt-signaling is important for MACC1 driving tumor progression and invasiveness (Lemos C, Clin Cancer Res, 2016) and second, S100A4 is a Wnt-signaling target gene and is found in the MACC1 induced secretome. The three single concentrations and nine combinations thereof were expressed relative to the control.

| Structure (SMILES) | MACC1 protein (MACC1 [1]) | MACC1 mRNA expression (MACC1 [2]) | Metastasis formation to the liver (luminescence), reduced dose (HCT116-CMVp-Luc cells) | Metastasis formation to the liver (luminescence), maximum human dose equivalent (HCT116-CMVp-Luc cells) | Wound closure (cellular motility), single agents (HCT116 cells) |
| --- | --- | --- | --- | --- | --- |
| O=C(O)C[C@H](O)C[C@H](O)/C=C/c1c(C2CC2)nc2ccccc2c1-c1ccc(F)cc1 [Pitavastatin] | shown to reduce | shown to reduce | – | – | – |
| CC(C)n1c(/C=C/[C@H](O)C[C@H](O)CC(=O)O)c(-c2ccc(F)cc2)c2ccccc21 (racemic) [fluvastatin] | shown to reduce | shown to reduce | no reduction in metastasis formation | significantly reduced | dose dependent reduction of wound closure ability |
| CC(C)c1c(C(=O)Nc2ccccc2)c(-c2ccccc2)c(-c2ccc(F)cc2)n1CC[C@@H](O)C[C@@H](O)CC(=O)O [atorvastatin] | shown to reduce | shown to reduce | no reduction in metastasis formation | significantly reduced | dose dependent reduction of wound closure ability |
| O=C(Nc1ccc([N+](=O)[O-])cc1Cl)c1cc(Cl)ccc1O [niclosamide, 5-Chloro-N-(2-chloro-4-nitrophenyl)-2-hydroxybenzamide] | – | – | no reduction in metastasis formation | significantly reduced | dose dependent reduction of wound closure ability |
| CC[C@H](C)C(=O)O[C@H]1C[C@@H](C)C=C2C=C[C@H](C)[C@H](CC[C@@H]3C[C@@H](O)CC(=O)O3)[C@H]21 [lovastatin] | shown to reduce | shown to reduce | – | – | dose dependent reduction of wound closure ability |

— patent US20220125807A1, “PHARMACEUTICAL COMBINATION OF WNT SIGNALING AND MACC1 INHIBITORS” (Max-Delbrück-Centrum für Molekulare Medizin in der …, priority 2019, published 2022)
